In ChEMBL document CHEMBL1150278, “Thiocamptothecin” (J Med Chem, 2008):
Active and inactive are the calls of the source. The rule behind the calls is not given here.

How the values were obtained:
NCI-H460 [1] = assay: Cytotoxicity against human H460 cells after 72 hrs; format: functional, cell-based; conditions: NCI-H460, 72 h
IGROV-1 [2] = assay: Cytotoxicity against human IGROV1 cells after 1 hr; format: functional, cell-based; conditions: IGROV-1, 1 h
IGROV-1 [3] = assay: Cytotoxicity against human IGROV1 cells after 72 hrs; format: functional, cell-based; conditions: IGROV-1, 72 h
NCI-H460 [4] = assay: Cytotoxicity against human H460 cells after 1 hr; format: functional, cell-based; conditions: NCI-H460, 1 h
HT-29 [5] = assay: Cytotoxicity against human HT29 cells after 1 hr; format: functional, cell-based; conditions: HT-29, 1 h
HT-29 [6] = assay: Cytotoxicity against human mitoxantrone-resistant HT29 cells after 1 hr; format: functional, cell-based; conditions: HT-29, 1 h
Homo sapiens = species: Homo sapiens; assay: Stimulation of human recombinant topoisomerase 1B-mediated SV40 DNA cleavage

Row | SMILES | IC50 (NCI-H460 [1]) [nM] | IC50 (IGROV-1 [2]) [nM] | IC50 (IGROV-1 [3]) [nM] | IC50 (NCI-H460 [4]) [nM] | IC50 (HT-29 [5]) [nM] | IC50 (HT-29 [6]) [nM] | Activity (Homo sapiens)
1 | CC[C@@]1(O)C(=O)OCc2c1cc1n(c2=O)Cc2cc3ccccc3nc2-1 [CAMPTOTHECIN] | 6.2 | 1650 | 12 | – | – | – | –
2 | CC[C@@]1(O)C(=O)OCc2c1cc1n(c2=S)Cc2cc3ccccc3nc2-1 | 7.4 | 220 | 4.67 | 140 | 170 | 110 | Active
